From PubChem BioAssay AID330 (DTP/NCI, 2004)
“And” between values parts separate entries of the source, which are not always exact repeats. Identical values can stand only once. Toxic doses and inconclusive results are not listed. Rule for the calls: active = survival T/C of 150% or more; inactive = T/C below 125% in these data.

System: P388 leukemia ip, CD2F1 mice, survival T/C
Experiment: NCI In Vivo Anticancer Drug Screen. Data for tumor model P388 Leukemia (intraperitoneal) in CD2F1 (CDF1) mice
Settings: endpoint: median survival time, higher = longer survival
Summary of the method: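 Mice carrying the transplanted tumor received test compound or vehicle. Survival was recorded in each group, and the value is the treated-group measurement divided by that of the vehicle-treated control group.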

[1] = dose: 6.25 mg/kg/injection, schedule: Q01DX009 (ip), vehicle: saline
[2] = dose: 12.5 mg/kg/injection, schedule: Q01DX009 (ip), vehicle: saline
[3] = dose: 25.0 mg/kg/injection, schedule: Q01DX009 (ip), vehicle: saline
[4] = dose: 100.0 mg/kg/injection, schedule: Q01DX009 (ip), vehicle: saline
[5] = dose: 50.0 mg/kg/injection, schedule: Q01DX009 (ip), vehicle: saline
[6] = dose: 200.0 mg/kg/injection, schedule: Q01DX009 (ip), vehicle: saline
[7] = dose: 60.0 mg/kg/injection, schedule: Q01DX005 (ip), vehicle: Klucel (hydroxypropylcellulose) (HPC)
[8] = dose: 120.0 mg/kg/injection, schedule: Q01DX005 (ip), vehicle: Klucel (hydroxypropylcellulose) (HPC)
[9] = dose: 60.0 mg/kg/injection, schedule: Q01DX005 (ip), vehicle: saline with Tween-80
[10] = dose: 120.0 mg/kg/injection, schedule: Q01DX005 (ip), vehicle: saline with Tween-80
[11] = dose: 240.0 mg/kg/injection, schedule: Q01DX005 (ip), vehicle: saline with Tween-80
[12] = dose: 240.0 mg/kg/injection, schedule: Q01DX005 (ip), vehicle: Klucel (hydroxypropylcellulose) (HPC)
[13] = dose: 60.0 mg/kg/injection, schedule: Q01DX005 (ip), vehicle: saline
[14] = dose: 120.0 mg/kg/injection, schedule: Q01DX005 (ip), vehicle: saline
[15] = dose: 240.0 mg/kg/injection, schedule: Q01DX005 (ip), vehicle: saline
[16] = dose: 50.0 mg/kg/injection, schedule: Q01DX005 (ip), vehicle: saline with Tween-80
[17] = dose: 100.0 mg/kg/injection, schedule: Q01DX005 (ip), vehicle: saline with Tween-80
[18] = dose: 200.0 mg/kg/injection, schedule: Q01DX005 (ip), vehicle: saline with Tween-80

Measured: T/C

[O-][n+]1ccccc1C1CO1 (stereo not given)
inactive: [1] 105 % of control | [2] 103 % of control | [3] 102 % of control | [4] 88 % of control

O=C(SC(O)c1ccc([N+](=O)[O-])cc1)c1ccccc1 (stereo not given)
inactive: dose: 100.0 mg/kg/injection, schedule: Q04DX003 (ip), vehicle: Klucel (hydroxypropylcellulose) (HPC) 101 % of control | dose: 200.0 mg/kg/injection, schedule: Q04DX003 (ip), vehicle: Klucel (hydroxypropylcellulose) (HPC) 106 % of control | dose: 400.0 mg/kg/injection, schedule: Q04DX003 (ip), vehicle: Klucel (hydroxypropylcellulose) (HPC) 101 % of control

CCNc1nc(N)nc(N)n1
inactive: [5] 102 % of control and 103 % of control and 104 % of control | dose: 50.0 mg/kg/injection, schedule: Q04DX002 (ip), vehicle: saline 107 % of control | [4] 100 % of control and 102 % of control and 112 % of control | dose: 100.0 mg/kg/injection, schedule: Q04DX002 (ip), vehicle: saline 98 % of control | [6] 100 % of control and 110 % of control and 120 % of control | dose: 200.0 mg/kg/injection, schedule: Q04DX002 (ip), vehicle: saline 98 % of control | dose: 400.0 mg/kg/injection, schedule: Q01DX009 (ip), vehicle: saline 102 % of control and 110 % of control

O=C1c2ccccc2C(=O)N1C(CO)Cc1ccccc1 (stereo not given)
inactive: dose: 50.0 mg/kg/injection, schedule: Q01DX009 (ip), vehicle: saline with Tween-80 100 % of control | dose: 100.0 mg/kg/injection, schedule: Q01DX009 (ip), vehicle: saline with Tween-80 95 % of control | dose: 200.0 mg/kg/injection, schedule: Q01DX009 (ip), vehicle: saline with Tween-80 108 % of control

C/C(=C(/O)c1ccc(Cl)cc1)c1nc2ccc(Cl)cc2[nH]c1=O
inactive: [7] 96 % of control | [8] 101 % of control

COc1cc(C(CC(C)=O)c2cc3c(cc2OC(C)=O)OCO3)cc(OC)c1OC (stereo not given) (tested in a mixture with another compound)
active: [11] 162 % of control and 188 % of control
inactive: dose: 30.0 mg/kg/injection, schedule: Q01DX005 (ip), vehicle: saline with Tween-80 99 % of control | [9] 102 % of control and 122 % of control | [10] 118 % of control

CCCC1=CC(C)(C)CC(C)=C1 (tested in a mixture with another compound)
inactive: dose: 50.0 mg/kg/injection, schedule: Q01DX009 (ip), vehicle: saline sonified 95 % of control | dose: 100.0 mg/kg/injection, schedule: Q01DX009 (ip), vehicle: saline sonified 95 % of control | dose: 200.0 mg/kg/injection, schedule: Q01DX009 (ip), vehicle: saline sonified 90 % of control

CC(NNC(=S)N(C)C1CCCCC1)c1nccc2ccccc12 (stereo not given)
inactive: dose: 30.12 mg/kg/injection, schedule: Q01DX001 (ip), vehicle: Klucel (hydroxypropylcellulose) (HPC) 101 % of control and 102 % of control | dose: 60.25 mg/kg/injection, schedule: Q01DX001 (ip), vehicle: Klucel (hydroxypropylcellulose) (HPC) 103 % of control and 107 % of control and 108 % of control | dose: 120.5 mg/kg/injection, schedule: Q01DX001 (ip), vehicle: Klucel (hydroxypropylcellulose) (HPC) 114 % of control and 115 % of control | dose: 241.0 mg/kg/injection, schedule: Q01DX001 (ip), vehicle: Klucel (hydroxypropylcellulose) (HPC) 108 % of control and 113 % of control

CC(C)C1=CC(=O)C(C)(C2C(O)CC3(C)C4CC=C5C(CCC(O)C5(C)C)C4(C)C(=O)CC23C)O1 (stereo not given)
inactive: dose: 10.13 mg/kg/injection, schedule: Q01DX005 (ip), vehicle: saline + alcohol 97 % of control | dose: 20.25 mg/kg/injection, schedule: Q01DX005 (ip), vehicle: saline + alcohol 98 % of control | dose: 40.05 mg/kg/injection, schedule: Q01DX005 (ip), vehicle: saline + alcohol 101 % of control | dose: 81.0 mg/kg/injection, schedule: Q01DX005 (ip), vehicle: saline + alcohol 97 % of control

CC1C(c2ccccc2)OC(c2ccccc2)N1C (stereo not given)
inactive: dose: 12.5 mg/kg/injection, schedule: Q01DX005 (ip), vehicle: water 93 % of control | dose: 25.0 mg/kg/injection, schedule: Q01DX005 (ip), vehicle: water 93 % of control | dose: 50.0 mg/kg/injection, schedule: Q01DX005 (ip), vehicle: water 98 % of control | dose: 100.0 mg/kg/injection, schedule: Q01DX005 (ip), vehicle: water 93 % of control | dose: 200.0 mg/kg/injection, schedule: Q01DX005 (ip), vehicle: water 98 % of control

CCCCCCCCCCCCCCCCOP(=O)(O)OCCCCCCCCCCCCCCCC
inactive: dose: 100.0 mg/kg/injection, schedule: Q04DX003 (ip), vehicle: saline with Tween-80 88 % of control | dose: 200.0 mg/kg/injection, schedule: Q04DX003 (ip), vehicle: saline with Tween-80 90 % of control

Clc1ccc(C2N3Cc4ccccc4CN2c2ccccc23)cc1
inactive: dose: 100.0 mg/kg/injection, schedule: Q01DX001 (ip), vehicle: Klucel (hydroxypropylcellulose) (HPC) 100 % of control | dose: 200.0 mg/kg/injection, schedule: Q01DX001 (ip), vehicle: Klucel (hydroxypropylcellulose) (HPC) 98 % of control | dose: 400.0 mg/kg/injection, schedule: Q01DX001 (ip), vehicle: Klucel (hydroxypropylcellulose) (HPC) 96 % of control

CCCCN1C(=O)CC(=O)N(c2ccccc2)C1=O
inactive: [5] 99 % of control | [4] 103 % of control | [6] 93 % of control

COc1ccc(C(O)c2cnc(C)n2Cc2ccccc2)cc1 (stereo not given)
inactive: [9] 99 % of control | [10] 100 % of control | [11] 94 % of control

CC1=c2c(oc3cc(O)c(Nc4c(C)cc(O)cc4O)c(C)c23)=CC(=O)C1=Nc1c(C)cc(O)cc1O
inactive: [7] 95 % of control | [8] 89 % of control | [12] 95 % of control

Nc1cc(=O)nc2cn[nH]n12
inactive: [5] 92 % of control | [4] 101 % of control | [6] 90 % of control

CCCCCCCCCCCCCCCC(=O)N(CCCN(C)C)C(C)(C)CCC(C)(C)N(CCCN(C)C)C(=O)CCCCCCCCCCCCCCC
inactive: dose: 25.0 mg/kg/injection, schedule: Q01DX009 (ip), vehicle: other 98 % of control | dose: 50.0 mg/kg/injection, schedule: Q01DX009 (ip), vehicle: other 96 % of control

NC(=O)N/N=C/c1cccc(O)c1O
inactive: dose: 50.0 mg/kg/injection, schedule: Q01DX009 (ip), vehicle: Klucel (hydroxypropylcellulose) (HPC) 101 % of control | dose: 100.0 mg/kg/injection, schedule: Q01DX009 (ip), vehicle: Klucel (hydroxypropylcellulose) (HPC) 107 % of control | dose: 200.0 mg/kg/injection, schedule: Q01DX009 (ip), vehicle: Klucel (hydroxypropylcellulose) (HPC) 116 % of control

CCCCCCCCCC[CH2][Sn]([CH2]CCCCCCCCCC)([CH2]CCCCCCCCCC)[CH2]CCCCCCCCCC
inactive: [1] 99 % of control | [2] 105 % of control | [3] 99 % of control

O=S(O)CCCCSSCC(O)CO (stereo not given)
inactive: dose: 30.0 mg/kg/injection, schedule: Q01DX005 (ip), vehicle: saline 101 % of control | dose: 50.0 mg/kg/injection, schedule: Q01DX005 (ip), vehicle: saline 111 % of control | [13] 115 % of control | [14] 115 % of control | dose: 200.0 mg/kg/injection, schedule: Q01DX005 (ip), vehicle: saline 111 % of control | [15] 117 % of control

CN=C(NC(C)C)c1ccc(NC(=O)c2ccc(C(=O)Nc3ccc(C(=NC)NC(C)C)cc3)cc2)cc1
inactive: dose: 32.0 mg/kg/injection, schedule: Q01DX009 (ip), vehicle: saline 122 % of control | dose: 64.0 mg/kg/injection, schedule: Q01DX009 (ip), vehicle: saline 109 % of control
active: dose: 96.0 mg/kg/injection, schedule: Q04DX003 (ip), vehicle: saline with Tween-80 154 % of control

CCOC(=O)CCC(=O)Oc1cccc2c1C(=O)c1c(OC(=O)CCC(=O)OCC)cccc1C2=O
inactive: [7] 91 % of control | [8] 97 % of control | [12] 91 % of control

Nn1cnc2[nH]ncc2c1=O
inactive: [13] 99 % of control | [14] 99 % of control | [15] 105 % of control

OC1(c2cc3ccccc3c3ccccc23)c2ccccc2-c2ccccc21
inactive: [16] 98 % of control | [17] 100 % of control | [18] 100 % of control

CCCCCCCCCCCc1c(O)c(O)c(-c2ccccn2)c2nonc12
inactive: [16] 106 % of control | [17] 103 % of control | [18] 98 % of control
